Laboratory results as given in ChEMBL document CHEMBL5728071, “Optically active azabicyclo ring derivative” (2020).

Molecular target: T1, Menin (Homo sapiens, UniProt O00255)
T1 sequence (O00255 whole entry): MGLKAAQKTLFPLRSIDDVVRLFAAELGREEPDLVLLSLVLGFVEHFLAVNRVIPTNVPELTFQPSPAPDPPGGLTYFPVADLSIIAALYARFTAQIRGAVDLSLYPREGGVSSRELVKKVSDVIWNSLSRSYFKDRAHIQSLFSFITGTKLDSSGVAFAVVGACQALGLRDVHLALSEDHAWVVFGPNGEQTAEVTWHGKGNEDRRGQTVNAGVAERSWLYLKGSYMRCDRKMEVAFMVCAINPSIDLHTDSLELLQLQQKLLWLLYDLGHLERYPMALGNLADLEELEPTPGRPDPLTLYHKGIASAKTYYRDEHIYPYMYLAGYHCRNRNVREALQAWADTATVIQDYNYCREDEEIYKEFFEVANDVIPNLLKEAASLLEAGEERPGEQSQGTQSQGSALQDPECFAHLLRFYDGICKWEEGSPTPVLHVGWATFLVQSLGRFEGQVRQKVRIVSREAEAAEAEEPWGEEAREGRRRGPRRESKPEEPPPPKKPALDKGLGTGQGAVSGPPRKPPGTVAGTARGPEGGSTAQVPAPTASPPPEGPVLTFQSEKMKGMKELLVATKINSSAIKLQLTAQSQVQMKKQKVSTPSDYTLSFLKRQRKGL
Assay: After the incubation, the signal was detected with RUBYstar (BMG LABTECH).

SMILES | IC50 [nM]
C=C1C[C@H]2CC[C@@H]1N[C@@H]2C(=O)N1CCC2(CC1)CN(c1ncncc1Oc1ccc(F)cc1C(=O)N(C(C)C)C(C)C)C2 | 7.9
C=C1C[C@H]2CC[C@@H]1N[C@@H]2C(=O)N1CC2(C1)CN(c1ncncc1Oc1ccc(F)cc1C(=O)N(C(C)C)C(C)C)C2 | 6.2
